From US10035796B2, “Crystalline forms of a BACE inhibitor, compositions, and their use” (Merck Sharp & Dohme Corp., priority 2014, dated 2018)

What was measured:
[1] = Hygroscopicity by dynamic vapor sorption (DVS); type: physicochemical
Experimental: Hygroscopicity was evaluated by using a dynamic vapor sorption instrument (DVI). The experiment was performed under controlled temperature conditions with temperature set at 25° C. Following a drying step at 40° C. for 60 minutes, samples were subjected to water vapor starting from 5% relative humidity with stepwise increase up to 95% relative humidity in 5% increments. The desorption experiment was performed under the same conditions with a stepwise decrease in relative humidity. Maximum equilibrium time was held as 180 minutes with equilibrium criteria as 0.005 weight % in 5 min.

[2] = Single oral dose pharmacokinetic study in male rats; type: in vivo; conditions: male rats (n=4 per group), suspension in 4% hydroxypropyl methylcellulose, nominal dose 100 mg/kg, FIG. 5
Experimental: (FIG. 5). […] To generate the data shown in FIG. 5, a single oral dose pharmacokinetic study was conducted as a two-way parallel design in male rats (n=4 per group). For each form a suspension was prepared in 4% hydroxypropyl methylcellulose with nominal dose as 100 mg/kg.

## CN1C(=N)N[C@](C)(c2cc(NC(=O)c3ccc(F)cn3)ccc2F)CS1(=O)=O [Crystalline Anhydrous Form 1]
[1]; after sorption/desorption between 5% and 95% relative humidity
  crystalline form by PXRD after the vapor sorption analysis: retain the identical Crystalline Anhydrous Form 1
[1]; ambient temperature, 95% relative humidity, DVS measurement
  moisture uptake: 0.04 weight %
[1]; dynamic vapor sorption, 25° C.
  hygroscopicity according to the European Pharmacopeia classification: non-hygroscopic
[2]
  mean plasma concentration-time profile: essentially identical to that of the corresponding amorphous HCl salt form

## CN1C(N)=NC(C)(c2cc(NC(=O)c3ccc(F)cn3)ccc2F)CS1(=O)=O.Cl (centres unmarked) [amorphous HCl salt form]
[2]
  mean plasma concentration-time profile: excellent
